The species named for assay [1] is Cavia porcellus. The assay can be described thus: Compound was tested for relaxant activity in trachea for asthma in male guinea pigs. The class given is functional.
The species named for assay [2] is Cavia porcellus. The assay can be described thus: Compound was tested for relaxant activity in urinary bladder for urinary incontinence in male guinea pigs. The class given is functional.
The species named for assay [3] is Cavia porcellus. Put plainly: Compound was tested for relaxant activity in taenia caecum. The class given is functional. Particulars: read-out: ED50 (the source's name).
Assay [4] deals with Canis familiaris. The assay can be described thus: Compound was tested for the antihypertensive activity in dogs by intravenous injection at a dose of 30 ug/kg. The class given is functional, Canis lupus familiaris.
The species named for assay [5] is Cavia porcellus. The assay can be described thus: Compound was tested for relaxant activity in urinary bladder for urinary incontinence in male guinea pigs at 1 uM concentration. The class given is functional. Also noted: scale not given: the % may be the effect or the level left.

`CCC(C)(CC)/N=C(\NC#N)Nc1cc(Cl)cc(Cl)c1`: the ED50 in assay [1] came to 440 nM; in assay [2], 13 nM.
With `CCC(C)(CC)/N=C(\NC#N)Nc1cc(Cl)cc(C#N)c1`, the EC50 in assay [3] turned out to be 100 nM. In assay [4], this molecule came in with an AHA of -25.2 delta mmHg. Besides, the figures for the ED50 in assay [1] and in assay [2] were 190 nM and 16 nM, respectively.
Regarding `CCC(C)(C)/N=C(\NC#N)Nc1cc(F)cc(Br)c1`, the ED50 in assay [1] turned out to be 180 nM; in assay [2], 16 nM.
Consider `CCC(CC)(CC)/N=C(\NC#N)Nc1cc(Cl)cc(C#N)c1`, for which, in assay [3], the EC50 worked out at 94 nM. In addition, the Activity in assay [5] amounted to 22%. For the same molecule, in assay [4], the AHA is -18.9 delta mmHg. The figures for the ED50 in assay [1] and in assay [2] were 5600 nM and above 1000 nM, respectively.
As to `CCC(C)(C)/N=C(\NC#N)Nc1cc(Br)cc(C#N)c1`, in assay [3], the EC50 came out at 32 nM. For the same molecule, the values for the ED50 in assay [1] and in assay [2] were 80 nM and 11 nM, respectively.
Consider `CC(C)C(C)(C)/N=C(\NC#N)Nc1cc(Cl)cc(C#N)c1`, for which, in assay [3], the EC50 came to 170 nM. The AHA in assay [4] is reported as -20.3 delta mmHg. The ED50 in assay [1] stood at 690 nM; in assay [2], 190 nM.
As for `CCC(C)(C)/N=C(\NC#N)Nc1cc(Cl)cc(C#N)c1`, the EC50 in assay [3] was 75 nM. Also, the AHA in assay [4] is recorded as -29.8 delta mmHg. Also, the ED50 came out at 280 nM in assay [1] and 20 nM in assay [2].
`CCC(C)(C)/N=C(\NC#N)Nc1cc(F)cc(Cl)c1`: the ED50 is 260 nM in assay [1] and 32 nM in assay [2].
In assay [5], `CCC(CC)(CC)/N=C(\NC#N)Nc1cc(Cl)cc(Cl)c1` yielded an Activity below 5%. This molecule yielded an AHA in assay [4] of -15.9 delta mmHg. Further, the ED50 in assay [1] is 30000 nM; in assay [2] it was above 1000 nM.
`CC1(C)Oc2ccc(C#N)cc2[C@@H](N2CCCC2=O)[C@@H]1O` [CROMAKALIM]: in assay [3], the EC50 came out at 470 nM. In assay [4], this molecule showed an AHA of -37.8 delta mmHg. The ED50 in assay [1] turned out to be 1200 nM; in assay [2] it was 42 nM.
Consider `CC(N/C(=N\C#N)Nc1ccncc1)C(C)(C)C` (stereo unspecified) [PINACIDIL ANHYDROUS], for which the ED50 in assay [1] came to 2300 nM; in assay [2] it was 310 nM.

Values taken from ChEMBL document CHEMBL1130695, “Biologically selective potassium channel openers having 1,1-diethylpropyl group” (1998).
